The record followed here is patent US20170043031A1, “IGF-1R ANTIBODY-DRUG-CONJUGATE AND ITS USE FOR THE TREATMENT OF CANCER” (PIERRE FABRE MEDICAMENT, priority 2014, published 2017).

The test system of the test is lysosome functions. As to the kind of experiment: Inhibition of Abs degradation using lysosome inhibitor. In kind it is cell-based. Particulars: 10 μg/ml of Ab, 2 h at 37° C. As to the method:
In order to confirm that antibodies reached the lysosome were they are degraded, cells were treated or not with bafilomycine A1, a potent inhibitor of lysosome functions. Cells were then incubated with 10 μg/ml of Ab to be tested at 4° C., washed and incubated for 2 h at 37° C. The internalized Ab was detected after cell permeabilisation using a secondary anti-mouse IgG-Alexa 488 Ab.

Regarding `CO/C1=C\C(C)=C\[C@@H](C)[C@@H](O)[C@@H](C)C/C(C)=C/C=C/[C@H](OC)[C@@H]([C@@H](C)[C@@H](O)[C@H](C)[C@@]2(O)C[C@@H](O)[C@H](C)[C@@H](C(C)C)O2)OC1=O` [bafilomycine A1], the “degradation of intracellular Ab” value is “prevented the degradation of intracellular Ab”.
